# How the values were obtained:
# [1] = target: human BACE1 (Homo sapiens, UniProt P56817); experiment: Fluorescent kinetic assay, inhibition of BACE1 (WABC-6 peptide substrate); type: biochemical; conditions: 10 nM enzyme, 25 μM substrate WABC-6, pH 4.5, room temperature; read-out: IC50 (μM) BACE1;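 also: fluorescence monitored at 320 nm excitation and 420 nm emission every 40 s over 30 min, with the substrate cleavage rate taken from the linear slope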
# [2] = target: T1, human BACE2 (Homo sapiens, UniProt Q9Y5Z0); experiment: Fluorescent Kinetic Assay for Human Recombinant BACE 2 (selectivity BACE1/BACE2); type: biochemical; conditions: selectivity BACE1 over BACE2; 1.5 nM human BACE2, 25 μM substrate, pH 4.5;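 also: cleavage rate from the linear slope of fluorescence (excitation 320 nm, emission 420 nm) recorded every 40 s over 30 min at room temperature, sodium acetate buffer with 0.05% CHAPS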
# T1 sequence (Q9Y5Z0 63-518): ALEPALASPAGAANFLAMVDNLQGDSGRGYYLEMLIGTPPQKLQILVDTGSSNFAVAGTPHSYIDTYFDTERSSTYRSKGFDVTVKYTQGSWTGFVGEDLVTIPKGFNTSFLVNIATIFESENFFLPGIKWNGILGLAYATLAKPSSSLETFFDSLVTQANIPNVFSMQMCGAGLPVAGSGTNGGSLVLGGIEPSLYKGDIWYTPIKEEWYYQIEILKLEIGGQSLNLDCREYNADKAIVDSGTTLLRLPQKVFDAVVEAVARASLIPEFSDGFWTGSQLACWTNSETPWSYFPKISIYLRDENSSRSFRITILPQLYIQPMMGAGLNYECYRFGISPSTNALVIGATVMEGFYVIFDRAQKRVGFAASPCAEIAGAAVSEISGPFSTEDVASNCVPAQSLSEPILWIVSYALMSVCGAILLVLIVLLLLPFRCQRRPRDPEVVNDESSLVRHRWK
# human BACE1, sequence (P56817 46-501): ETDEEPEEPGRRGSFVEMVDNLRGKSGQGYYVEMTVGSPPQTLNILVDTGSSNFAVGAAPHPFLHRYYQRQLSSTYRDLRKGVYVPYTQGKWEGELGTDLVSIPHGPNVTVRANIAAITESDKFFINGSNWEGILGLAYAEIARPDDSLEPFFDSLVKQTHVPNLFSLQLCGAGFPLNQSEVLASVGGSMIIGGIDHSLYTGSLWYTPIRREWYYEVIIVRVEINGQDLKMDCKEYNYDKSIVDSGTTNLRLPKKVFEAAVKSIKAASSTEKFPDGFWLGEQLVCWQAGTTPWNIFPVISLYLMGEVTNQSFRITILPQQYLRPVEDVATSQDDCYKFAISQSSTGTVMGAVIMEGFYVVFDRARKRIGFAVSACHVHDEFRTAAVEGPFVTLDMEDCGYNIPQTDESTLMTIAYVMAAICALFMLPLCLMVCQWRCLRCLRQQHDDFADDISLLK
Compound,IC50 [1] [µM],BACE1/BACE2 selectivity [2],melting point [°C]
CN1C(=O)C(c2ccc(OC(F)F)cc2)(c2ccc(F)c(-c3cccnc3F)c2)N=C1N (stereo not drawn) [Example 96],0.01 to 0.1,II (II = 10-100-fold selectivity),108 to 110
CN1C(=O)C(c2ccc(OC(F)F)cc2)(c2ccc(F)c(-c3cncnc3)c2)N=C1N (stereo not drawn) [Example 97],0.01 to 0.1,II (II = 10-100-fold selectivity),103 to 105
CCOc1ccc(C2(c3ccc(F)c(-c4cccnc4)c3)N=C(N)N(C)C2=O)cc1OCC (stereo not drawn) [Example 99],0.01 to 0.1,III (III = <10-fold selectivity),93 to 95
"CN1C(=O)C(c2ccc(OCCF)c(OCCF)c2)(c2ccc(F)c(-c3cccnc3F)c2)N=C1N (stereo not drawn) [Example 104, 2-Amino-5-[3,4-bis-(2-fluoro-ethoxy)-phenyl]-5-[4-fluoro-3-(2-fluoro-pyridin-3-yl)-phenyl]-3-methyl-3,5-dihydro-imidazol-4-one]",0.01 to 0.1,II (II = 10-100-fold selectivity),85 to 95
"CN1C(=O)C(c2ccc(OCCF)cc2)(c2ccc(F)c(-c3cccnc3F)c2)N=C1N (stereo not drawn) [Example 108, 2-Amino-5-[4-(2-fluoroethoxy)phenyl]-5-[4-fluoro-3-(2-fluoropyridin-3-yl)phenyl]-3-methyl-3,5-dihydro-4H-imidazol-4-one]",0.01 to 0.1,II (II = 10-100-fold selectivity),135
CN1C(=O)C(c2ccc(OCCF)cc2)(c2ccc(F)c(-c3cncnc3)c2)N=C1N (stereo not drawn) [Example 109],0.01 to 0.1,II (II = 10-100-fold selectivity),123
CN1C(=O)C(c2ccc(OCCF)cc2)(c2cccc(-c3ccc(F)nc3)c2)N=C1N (stereo not drawn) [Example 111],0.11 to 1,III (III = <10-fold selectivity),100
Cc1cc(C2(c3ccc(F)c(-c4cccnc4F)c3)N=C(N)N(C)C2=O)ccc1OCCF (stereo not drawn) [Example 112],0.01 to 0.1,II (II = 10-100-fold selectivity),105 to 106
Cc1cc(C2(c3ccc(F)c(-c4cncnc4)c3)N=C(N)N(C)C2=O)ccc1OCCF (stereo not drawn) [Example 113],0.01 to 0.1,I (I = >100-fold selectivity),108 to 110
Cc1cc(C2(c3cccc(-c4cncnc4)c3)N=C(N)N(C)C2=O)ccc1OCc1ccccc1 (stereo not drawn) [Example 114],0.01 to 0.1,II (II = 10-100-fold selectivity),107 to 109
Cc1cc(C2(c3cccc(-c4cncnc4)c3)N=C(N)N(C)C2=O)ccc1O (stereo not drawn) [Example 115],0.01 to 0.1,II (II = 10-100-fold selectivity),168 to 170
Cc1cc(C2(c3cccc(-c4cncnc4)c3)N=C(N)N(C)C2=O)ccc1OCCF (stereo not drawn) [Example 116],0.01 to 0.1,II (II = 10-100-fold selectivity),108 to 110
Cc1cc(C2(c3cccc(-c4cncnc4)c3)N=C(N)N(C)C2=O)ccc1OCC#N (stereo not drawn) [Example 117],0.01 to 0.1,II (II = 10-100-fold selectivity),220 to 222
Cc1cc(C2(c3cccc(-c4cncnc4)c3)N=C(N)N(C)C2=O)ccc1OC(C)C (stereo not drawn) [Example 118],0.01 to 0.1,I (I = >100-fold selectivity),101 to 103
CCOC(=O)COc1ccc(C2(c3cccc(-c4cncnc4)c3)N=C(N)N(C)C2=O)cc1C (stereo not drawn) [Example 119],0.11 to 1,II (II = 10-100-fold selectivity),105 to 107
CCOc1ccc(C2(c3cccc(-c4cncnc4)c3)N=C(N)N(C)C2=O)cc1C (stereo not drawn) [Example 120],0.01 to 0.1,I (I = >100-fold selectivity),106 to 108
CCCOc1ccc(C2(c3cccc(-c4cncnc4)c3)N=C(N)N(C)C2=O)cc1C (stereo not drawn) [Example 121],0.01 to 0.1,II (II = 10-100-fold selectivity),102 to 104
Cc1cc(C2(c3cccc(-c4cncnc4)c3)N=C(N)N(C)C2=O)ccc1OCC(C)C (stereo not drawn) [Example 122],0.01 to 0.1,II (II = 10-100-fold selectivity),103 to 105
Cc1cc(C2(c3cccc(-c4cncnc4)c3)N=C(N)N(C)C2=O)ccc1OCCCOc1ccccc1 (stereo not drawn) [Example 124],0.01 to 0.1,II (II = 10-100-fold selectivity),72 to 74
"CN1C(=S)C(c2ccc(OC(F)(F)F)cc2)(c2cccc(-c3cccnc3F)c2)N=C1N (stereo not drawn) [Example 145, 2-Amino-5-[3-(2-fluoro-pyridin-3-yl)-phenyl]-3-methyl-5-(4-trifluoromethoxy-phenyl)-3,5-dihydro-imidazole-4-thione]",0.01 to 0.1,II (II = 10-100-fold selectivity),89 to 99

# Source: US7700602B2, “Amino-5,5-diphenylimidazolone derivatives for the inhibition of β-secretase” (Wyeth LLC, priority 2004, dated 2010)
